Results as given in patent publication US10407445B2, “Hepatitis C virus inhibitors” (ENANTA PHARMACEUTICALS, INC., priority 2013, dated 2019).
Where two headings read alike, the source gives them in different places.

Columns and labels:
HCV GT 2a-J6 replicon = test: HCV replicon assay, GT2a chimeric replicon expressing NS5A from GT2a strain J6; format: cell-based; conditions: Hepatitis C virus
Summary of the method: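 Stable Huh-7.5 lines carried JFH-1 subgenomic replicons with hRluc-Neo reporter, in which NS5A was swapped for GT3a strain S52 or GT2a strain J6 NS5A. Renilla luciferase was read after 72 h relative to DMSO controls.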

[1] = test system: GT1a replicon encoding NS5A mutation Q30R; test: Transient replication assay, GT1a replicon with NS5A mutation Q30R; format: cell-based; conditions: Hepatitis C virus
[2] = test system: HCV genotype 1a replicon, NS5A H58D; test: Transient replication assay, GT1a NS5A H58D; format: cell-based; conditions: Hepatitis C virus
[3] = IV and PO single dose pharmacokinetic studies in SD rats; format: in vivo; conditions: Sprague-Dawley, rat, plasma, male SD rats
Protocol: The pharmacokinetics of selected compounds was characterized in male Sprague-Dawley (SD) rats (250-300 g). […] The intravenous (IV) dosing vehicle was 5% ethanol and 95% of 20% 2-hydroxypropyl β-cyclodextrin in water. The oral dosing vehicle was 33% of Microemulsion Preconcentrate #5 (a lipid based self-emulsifying drug delivery system, SEDDS) and 67% of 50 mM citrate buffer (final pH 3.6).
Serial blood samples (approximately 0.3 mL each) were collected from jugular vein or other suitable vein at specified time points. For the IV dosing group, the blood samples were collected predose and at 0.08, 0.25, 0.50, 1, 3, 6, 8, and 24 hours after the start of dosing. For the oral group, the blood samples were collected predose and at 0.08, 0.25, 0.50, 1, 3, 6, 8, and 24 hours after dosing. The blood samples were collected into VACUTAINER™ tubes containing EDTA-K3 as the anti-coagulant and were centrifuged at approximately 4° C. to obtain plasma. The plasma samples were stored at −20° C. until analysis by LC/MS/MS.
A bioanalytical method utilizing high performance liquid chromatography coupled to tandem mass spectrometry (LC/MS/MS) was developed for analysis of the selected compound in rat plasma. Detection was performed using multiple reaction monitoring (MRM); Ions representing the precursor (M+H)^+ species was selected in quadrupole 1 (Q1) and collided with nitrogen gas in the collision cell (Q2) to generate specific product ion, which was subsequently monitored by quadrupole 3 (Q3). Standard curve and quality control samples were prepared in male rat plasma and processed in the same way as the test samples to generate quantitative data.
Pharmacokinetic parameters were generated using non-compartmental pharmacokinetic analysis (Phoenix WinNonlin, version 6.3). Values below the lower limit of quantification (LLOQ) were assigned a value of zero if predose and treated as missing thereafter. Area under the curve (AUC) was calculated using the linear trapezoidal rule. The oral bioavailability (% F) was determined by comparison of the area under the curve (AUC) of the compound in plasma following oral administration to that generated following intravenous administration.

[4] = oral gavage 20 mg/kg vs IV bolus 2 mg/kg

SMILES: COC(=O)N[C@H](C(=O)N1C[C@]2(CCCOC2)C[C@H]1c1ncc(-c2ccc(-c3ccc4c(ccc5nc([C@@H]6C[C@@H]7CCC[C@@H]7N6C(=O)[C@@H](NC(=O)OC)C(C)C)[nH]c54)c3)cc2)[nH]1)C(C)C [Compound 16]
- EC50 (HCV GT 2a-J6 replicon; 72 h, read-out: EC50 2a J6): 0.8 nM
- EC50 ([1]; read-out: EC50 1a Q30R): 0.02 nM
- EC50 [2]: 0.01 nM
- bioavailability [3, 4]: 23.7%

SMILES: COC(=O)N[C@H](C(=O)N1C[C@]2(CCCOC2)C[C@H]1c1ncc(-c2ccc(-c3ccc4c(ccc5nc([C@@H]6C[C@@H]7COC[C@@H]7N6C(=O)[C@@H](NC(=O)OC)C(C)C)[nH]c54)c3)cc2)[nH]1)C(C)C [Compound 35]
- EC50 (HCV GT 2a-J6 replicon; 72 h, read-out: EC50 2a J6): 2 nM
- EC50 ([1]; read-out: EC50 1a Q30R): 0.07 nM
- bioavailability [3, 4]: 1.1%

SMILES: COC(=O)N[C@H](C(=O)N1C[C@]2(CCCOC2)C[C@H]1c1ncc(-c2ccc(-c3ccc(-c4cnc([C@@H]5C[C@@H]6CCC[C@@H]6N5C(=O)[C@@H](NC(=O)OC)C(C)C)[nH]4)cc3)cc2)[nH]1)C(C)C [Compound 37]
- EC50 (HCV GT 2a-J6 replicon; 72 h, read-out: EC50 2a J6): 0.7 nM
- EC50 ([1]; read-out: EC50 1a Q30R): 0.02 nM
- bioavailability [3, 4]: 114%

SMILES: COC(=O)N[C@H](C(=O)N1CCC[C@H]1c1ncc(-c2ccc(-c3ccc4c(ccc5nc([C@@H]6C[C@@]7(CCCOC7)CN6C(=O)[C@@H](NC(=O)OC)C(C)C)[nH]c54)c3)cc2)[nH]1)C(C)C [Compound 44]
- EC50 (HCV GT 2a-J6 replicon; 72 h, read-out: EC50 2a J6): 1 nM
- EC50 ([1]; read-out: EC50 1a Q30R): 0.1 nM
- bioavailability [3, 4]: 14.8%

SMILES: COC(=O)N[C@H](C(=O)N1C[C@]2(CCCOC2)C[C@H]1c1ncc(-c2ccc(-c3ccc4c(ccc5nc([C@@H]6CCCN6C(=O)[C@@H](NC(=O)OC)C(C)C)[nH]c54)c3)cc2)[nH]1)C(C)C [Compound 47]
- EC50 (HCV GT 2a-J6 replicon; 72 h, read-out: EC50 2a J6): 0.6 nM
- EC50 ([1]; read-out: EC50 1a Q30R): 0.1 nM
- bioavailability [3, 4]: 7%

SMILES: COC(=O)N[C@H](C(=O)N1CCC[C@H]1c1nc2ccc3cc(-c4ccc5c(ccc6nc([C@@H]7C[C@@]8(CCCOC8)CN7C(=O)[C@@H](NC(=O)OC)C(C)C)[nH]c65)c4)ccc3c2[nH]1)C(C)C [Compound 48]
- EC50 (HCV GT 2a-J6 replicon; 72 h, read-out: EC50 2a J6): 0.03 nM
- EC50 ([1]; read-out: EC50 1a Q30R): 0.05 nM
- bioavailability [3, 4]: 1.7%

SMILES: COC(=O)N[C@H](C(=O)N1CCC[C@H]1c1ncc(-c2ccc(-c3ccc4c(ccc5nc([C@@H]6C[C@]7(CCOC7)CN6C(=O)[C@@H](NC(=O)OC)C(C)C)[nH]c54)c3)cc2)[nH]1)C(C)C [Compound 51]
- EC50 (HCV GT 2a-J6 replicon; 72 h, read-out: EC50 2a J6): 4 nM
- EC50 ([1]; read-out: EC50 1a Q30R): 0.2 nM
- bioavailability [3, 4]: 8.6%

SMILES: COC(=O)N[C@H](C(=O)N1CCC[C@H]1c1nc(-c2ccc(-c3ccc(-c4c[nH]c([C@@H]5CCCN5C(=O)[C@@H](NC(=O)OC)C(C)C)n4)cc3)cc2)c[nH]1)C(C)C [Daclatasvir, reference compound]
- EC50 [2]: 1.2 nM

SMILES: COC(=O)N[C@H](C(=O)N1C[C@]2(CCCOC2)C[C@H]1c1ncc(-c2ccc(-c3ccc4c(ccc5nc([C@@H]6CCCN6C(=O)[C@@H](NC(=O)OC)C(C)C)[nH]c54)c3)cc2)[nH]1)C(C)C [drawing 233]
- EC50 (HCV GT 2a-J6 replicon; read-out: EC50 (nM) 2a-J6): 0.6 nM
- EC50 ([1]; read-out: EC50 (nM) 1a Q30R): 0.1 nM
- bioavailability ([3]; comparative table, oral 20 mg/kg vs IV): 7%
